# Source: patent publication US3985747A, “Crystalline sesquihydrate of 7-[D-α-amino-α-(p-hydroxyphenyl)acetamido]-3-(1,2,3-triazol- 5-ylthiomethyl)-3-cephem-4-carboxylic acid” (priority 1974, dated 1976)
# Where a name gives a salt, the structure may show the parent alone. Read-outs that look alike come from different tables or passages of the source.
# Legend:
# [1] = Loss of bioactivity of the solid on storage at elevated temperatures; type: physicochemical; details: for Loss of bioactivity (potency) on storage: 43800 min
# [2] = Bio-assay (biopotency)
# [3] = in vivo; set-up: species or system mice; details: mouse, im, 10 mg/kg
# Experimental: Mouse Blood Levels after IM Administration of 10 mg./kg. Dose of BL-S640
# [4] = in vivo, po
# [5] = tested on: Pr. morganii A15153; test: M.I.C. by Tube Dilution; details: Morganella morganii
# [6] = tested on: S. aureus(methicillin resist) A15097; test: microbe, parasite or virus in culture; details: Staphylococcus aureus
# [7] = tested on: K. pneumoniae A9977; test: M.I.C. by Tube Dilution; details: Klebsiella pneumoniae
# [8] = Water solubility; type: physicochemical
# [9] = tested on: Ent. cloacae A9656; test: M.I.C. by Tube Dilution; details: Enterobacter cloacae
# [10] = tested on: bacteria; test: Antibacterial testing in vitro and in vivo; details: versus that reported in U.S. application Ser. No. 318,340
# [11] = tested on: Ser. marcescens A20019; test: M.I.C. by Tube Dilution; details: Serratia marcescens
# [12] = physchem; type: physicochemical; details: for Bioassay: solution pH 7.1, room temperature
# Description: The above components are shaken to form an amber solution having a pH = 7.1. The solution was allowed to stand at room temperature and periodically assayed to determine stability.
# [13] = tested on: E. coli A9675; test: M.I.C. by Tube Dilution; type: cell-based; details: Escherichia coli
# [14] = tested on: Ent. cloacae A9659; test: M.I.C. by Tube Dilution; details: Enterobacter cloacae
# [15] = tested on: Sal.enteritidis A9531; test: M.I.C. by Tube Dilution; type: cell-based; details: Salmonella enterica
# [16] = in vivo; details: mouse, blood, po, 100 mg/kg
# [17] = tested on: Ps. aeruginosa A9843A; test: microbe, parasite or virus in culture; details: Pseudomonas aeruginosa
# [18] = tested on: E. coli Juhl A15119; test: microbe, parasite or virus in culture; details: Escherichia coli, JUHLA15119
# [19] = tested on: Ent. cloacae A9657; test: M.I.C. by Tube Dilution; details: Enterobacter cloacae
# [20] = tested on: S. aureus Smith A9537; test: M.I.C. by Tube Dilution; type: cell-based; details: Staphylococcus aureus, overnight 37° C.
# [21] = tested on: K. pneumoniae A15130; test: microbe, parasite or virus in culture; details: Klebsiella pneumoniae
# [22] = tested on: S. aureus BX1633-2 A9606; test: M.I.C. by Tube Dilution; type: cell-based; details: Staphylococcus aureus, overnight 37° C.
# [23] = tested on: Str. Pyogenes A9604; test: M.I.C. by Tube Dilution; type: cell-based; details: Streptococcus pyogenes; at 10^-3 dil'n, + 5% serum; 50% Nutrient Broth - 45% Antibiotic Assay Broth; overnight 37° C.
# [24] = tested on: D. pneumoniae A9585; test: M.I.C. by Tube Dilution; type: cell-based; details: Streptococcus pneumoniae, at 10^-3 dil'n, + 5% serum, 50% Nutrient Broth - 45% Antibiotic Assay Broth, overnight 37° C.
# [25] = tested on: Pr. mirabilis A9900; test: M.I.C. by Tube Dilution; details: Proteus mirabilis
# [26] = Loss of bound water on drying; type: physicochemical; details: very mild conditions (air drying 37° - 45° C., 24 hours)
# Experimental: Upon recovery of the crystalline hydrate from the reaction mixture and cooling to room temperature, the hydrate is ordinarily isolated in the form of the crystalline dihydrate. […] […] […] Upon vacuum drying at 56° C. for 24 hours a crystalline hemihydrate is formed having 0.5 moles of bound water per mole of cephalosporin. All of the above-mentioned novel crystalline hydrates are included within the scope of the present invention.
# [27] = pH 7
# [28] = at 10^-4 dilution, overnight 37° C., read-out: M.I.C.
# [29] = SMITHA9537, at 10^-4 dilution, + 50% serum
structure (smiles),measurement,setting,value
N[C@@H](C(=O)NC1C(=O)N2C(C(=O)O)=C(CSc3cnn[nH]3)CSC12)c1ccc(O)cc1 (some centres unmarked) [amorphous monohydrate product],Loss of bioactivity (potency) on storage,"[1]; 56° C., 1 month",37%
"N[C@@H](C(=O)NC1C(=O)N2C(C(=O)O)=C(CSc3cnn[nH]3)CSC12)c1ccc(O)cc1 (stereo partly drawn) [Crystalline Methanol Solvate, 7-[D-α-amino-α-(p-hydroxyphenyl)acetamido]-3-(1,2,3-triazol-5-ylthiomethyl)-3-cephem-4-carboxylic acid methanol solvate]",Bio-assay,[2],850 to 900 µg/mg
"N[C@@H](C(=O)N[C@@H]1C(=O)N2C(C(=O)O)=C(CSc3c[nH]nn3)CS[C@H]12)c1ccc(O)cc1 [BL-S640 Sesquihydrate, 7-[D-α-amino-α-(p-hydroxyphenyl)acetamido]-3-(1,2,3-triazol-5-ylthiomethyl)-3-cephem-4-carboxylic acid sesquihydrate]",concentration at 5 min,[3],15000 ng/mL
same,concentration at 0.5 h,[3],13500 ng/mL
same,concentration at 1 h,[3],9400 ng/mL
same,concentration at 1.5 h,[3],6800 ng/mL
same,Blood levels,[4],effective blood levels
same,MIC,[5],16 µg/mL
same,MIC,[6],8 µg/mL
same,MIC,[7],1 µg/mL
same,solubility,"[8]; 25° C., read-out: Solubility in water",~10000 µg/mL
same,MIC,[9],> 125 µg/mL
same,Potency and spectrum of activity,[10],substantially the same potency and spectrum of activity
same,MIC,[11],125 µg/mL
same,degraded at 0.5 h,"[12]; aqueous solution, pH 7.1",0.8%
same,degraded at 1 h,"[12]; aqueous solution, pH 7.1",5.8%
same,degraded at 1.5 h,"[12]; aqueous solution, pH 7.1",8.3%
same,degraded at 2 h,"[12]; aqueous solution, pH 7.1",15.9%
same,degraded at […],"[12]; aqueous solution, pH 7.1",0.8%
same,Bioassay,[12]; 15 minutes,238 mg/mL
same,Bioassay,[12]; 30 minutes,238 mg/mL
same,Bioassay,[12]; 60 minutes,226 mg/mL
same,Bioassay,[12]; 90 minutes,220 mg/mL
same,Bioassay,[12]; 2 hours,202 mg/mL
same,Bioassay,[12]; time 0,240 mg/mL
same,MIC,[13]; [28],4 µg/mL
same,MIC,[14],32 µg/mL
same,MIC,[15]; [28],0.6 µg/mL
same,concentration at 0.5 h,[16],46000 ng/mL
same,concentration at 1 h,[16],42500 ng/mL
same,concentration at 2 h,[16],22500 ng/mL
same,concentration at 3.5 h,[16],11900 ng/mL
same,MIC,[17],> 125 µg/mL
same,MIC,[18],2 µg/mL
same,MIC,[19],1 µg/mL
same,MIC,[20]; [29],1 µg/mL
same,MIC,"[20]; SMITHA9537, at 10^-4 dilution, read-out: M.I.C.",0.3 µg/mL
same,MIC,[21],2 µg/mL
same,degraded at 730 h,"[1]; solid, 56° C., 1 month, read-out: Loss of bioactivity (potency) on storage",< 6%
same,MIC,"[22]; BX16332A9606, at 10^-2 dil'n",2 µg/mL
same,MIC,"[22]; BX16332A9606, at 10^-3 dil'n, read-out: M.I.C.",0.6 µg/mL
same,Bio-assay,[2],924 µg/mg
same,MIC,[23],0.02 µg/mL
same,MIC,[24],0.02 µg/mL
same,MIC,[25],0.5 µg/mL
same,Biological activity when suspended in water,,does not lose biological activity
"N[C@@H](C(=O)NC1C(=O)N2C(C(=O)O)=C(CSc3cnn[nH]3)CSC12)c1ccc(O)cc1 (stereo partly drawn) [propylene glycol solvate, 7-[D-α-amino-α-(p-hydroxyphenyl)acetamido]-3-(1,2,3-triazol-5-ylthiomethyl)-3-cephem-4-carboxylic acid propylene glycol solvate]",solubility,"[8]; 23° C., read-out: Water solubility",~10000 µg/mL
same,Loss of bioactivity (potency) on storage,"[1]; 56° C., 1 month",< 10%
same,degraded at 24 h,"[1]; solid, 100° C., 24 hours",< 6%
same,degraded at 48 h,"[1]; solid, 100° C., 48 hours",< 12%
same,Bio-assay,[2],750 to 790 µg/mg
"N[C@@H](C(=O)NC1C(=O)N2C(C(=O)O)=C(CSc3cnn[nH]3)CS[C@H]12)c1ccc(O)cc1.O.O (stereo partly drawn) [dihydrate, 7-[D-α-Amino-α-(p-hydroxyphenyl)-acetamido]-3-(1,2,3-triazol-5-ylthiomethyl)-3-cephem-4-carboxylic acid dihydrate]",Loss of bound water,[26],lose one-half molecule of bound water
same,Bio-assay,[2],950 to 1000 µg/mg
"Cc1nnc(SCC2=C(C(=O)O)N3C(=O)[C@@H](NC(=O)Cn4cnnn4)[C@H]3SC2)s1 [Cefazolin, Na salt, sodium cefazolin, reference compound]",concentration at 5 min,[3],16100 ng/mL
same,concentration at 0.5 h,[3],11100 ng/mL
same,concentration at 1 h,[3],5700 ng/mL
same,concentration at 1.5 h,[3],2900 ng/mL
"N[C@@H](C(=O)NC1C(=O)N2C(C(=O)O)=C(CSc3cnn[nH]3)CS[C@H]12)c1ccc(O)cc1 (stereo partly drawn) [BL-S640, 7-[D-α-Amino-α-(p-hydroxyphenyl)acetamido]-3-(1,2,3-triazol-5-ylthiomethyl)-3-cephem-4-carboxylic acid]",Degradation at alkaline pH,[27],degrades very rapidly by loss of the thiol moiety
"CC1=C(C(=O)O)N2C(=O)[C@@H](NC(=O)[C@H](N)c3ccccc3)[C@H]2SC1 [Cephalexin, cephalexin, reference compound]",MIC,[5],> 125 µg/mL
same,MIC,[6],32 µg/mL
same,MIC,[7],2 µg/mL
same,MIC,[9],> 125 µg/mL
same,MIC,[11],> 125 µg/mL
same,MIC,[13],16 µg/mL
same,MIC,[14],> 125 µg/mL
same,MIC,[15],2 µg/mL
same,MIC,[17],> 125 µg/mL
same,MIC,[18],4 µg/mL
same,MIC,[20]; [29],2.5 µg/mL
same,MIC,"[20]; SMITHA9537, at 10^-4 dilution",0.6 µg/mL
same,MIC,[21],8 µg/mL
same,MIC,"[22]; BX16332A9606, at 10^-2 dil'n",2 µg/mL
same,MIC,"[22]; BX16332A9606, at 10^-3 dil'n",1 µg/mL
same,MIC,[25],2 µg/mL
